Results taken from patent publication US10030020B2, “Spirocycle compounds and methods of making and using same” (Abide Therapeutics, Inc., priority 2016, dated 2018).

What was measured:
[1] = molecular target: T1, FAAH (Mus musculus (Mouse), UniProt O08914); assay: In vitro competitive activity-based protein profiling (mouse brain membrane fraction or cell lysates), FAAH band; type: biochemical; settings: mouse proteome; for inhibition at 1 µM: read-out: FAAH % Inh 1 μM (mouse); for IC50: competitive ABPP
How it was run: (§1)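 Competitive ABPP: proteome 1.0 mg/mL protein + inhibitor, 30 min, 37° C; FP-Rh probe (stock 50 μM in DMSO) added, 30 min, 37° C; SDS quench, SDS-PAGE, fluorescent band intensity read.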

[2] = molecular target: T2, MAGL (Mus musculus (Mouse), UniProt O35678); assay: Mouse brain proteomes from inhibitor treated mice (oral gavage, sacrificed 4 h after administration, ABPP analysis); type: in vivo, mouse (C57Bl/6J); settings: 5 mg/kg oral gavage
Description: (§2) Preparation of Mouse Brain Proteomes from Inhibitor Treated Mice.
(§3) Inhibitors were administered to wild-type C57Bl/6J by oral gavage in a vehicle, e.g. PEG400/Ethanol/PBS (7/2/1). Each animal was sacrificed 4 h following administration and brain proteomes were prepared and analyzed according to previously established methods (See Niphakis, M. J., et al. (2011) ACS Chem. Neurosci. and Long, J. Z., et al. Nat. Chem. Biol. 5:37-44). Data from this assay is shown in Table 2 (% inhibition at 5 mg/kg).

[3] = molecular target: T3, ABHD6 (Mus musculus (Mouse), UniProt Q8R2Y0); assay: In vitro competitive activity-based protein profiling (mouse brain membrane fraction or cell lysates), ABHD6 band; type: biochemical; settings: mouse proteome; for inhibition at 1 µM: read-out: ABHD6 % Inh 1 μM (mouse); for IC50: competitive ABPP
How it was run: as §1

[4] = molecular target: T2, MAGL; assay: In vitro competitive activity-based protein profiling (mouse brain membrane fraction or cell lysates), MAGL band; type: biochemical; settings: mouse proteome; for inhibition at 1 µM: read-out: MAGL % Inh 1 μM (mouse); for IC50: competitive ABPP
Description: In Vitro Competitive Activity-Based Protein Profiling.
Proteomes (mouse brain membrane fraction or cell lysates) (50 μL, 1.0 mg/mL total protein concentration) were preincubated with varying concentrations of inhibitors at 37° C. After 30 min, FP—Rh (1.0 μL, 50 μM in DMSO) was added and the mixture was incubated for another 30 min at 37° C. Reactions were quenched with SDS loading buffer (50 μL-4×) and run on SDS-PAGE.

[5] = molecular target: T1, FAAH; assay: Mouse brain proteomes from inhibitor treated mice (oral gavage, sacrificed 4 h after administration, ABPP analysis), FAAH; type: in vivo, mouse (C57Bl/6J); settings: 5 mg/kg oral gavage
Description: as §2, §3

[6] = molecular target: T3, ABHD6; assay: Mouse brain proteomes from inhibitor treated mice (oral gavage, sacrificed 4 h after administration, ABPP analysis), ABHD6; type: in vivo, mouse (C57Bl/6J); settings: 5 mg/kg oral gavage
Description: as §2, §3

T2 sequence (O35678 whole entry): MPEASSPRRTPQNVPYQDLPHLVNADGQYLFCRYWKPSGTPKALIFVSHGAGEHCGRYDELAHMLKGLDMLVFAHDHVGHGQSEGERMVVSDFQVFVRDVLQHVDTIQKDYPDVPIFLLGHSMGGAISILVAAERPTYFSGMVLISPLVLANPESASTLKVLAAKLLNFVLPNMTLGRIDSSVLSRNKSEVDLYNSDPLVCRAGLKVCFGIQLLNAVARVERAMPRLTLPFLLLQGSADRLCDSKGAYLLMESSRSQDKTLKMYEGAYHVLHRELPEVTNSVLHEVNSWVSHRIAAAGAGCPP
T3 sequence (Q8R2Y0 whole entry): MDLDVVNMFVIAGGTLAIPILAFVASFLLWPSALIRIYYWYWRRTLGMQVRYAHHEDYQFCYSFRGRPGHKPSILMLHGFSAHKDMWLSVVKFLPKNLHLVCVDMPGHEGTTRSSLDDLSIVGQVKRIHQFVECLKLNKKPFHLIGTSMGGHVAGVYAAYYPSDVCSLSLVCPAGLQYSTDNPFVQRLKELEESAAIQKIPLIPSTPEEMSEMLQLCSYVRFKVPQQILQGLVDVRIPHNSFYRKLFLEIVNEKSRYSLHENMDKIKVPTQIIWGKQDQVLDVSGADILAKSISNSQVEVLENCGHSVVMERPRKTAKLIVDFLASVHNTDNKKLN
T1 sequence (O08914 whole entry): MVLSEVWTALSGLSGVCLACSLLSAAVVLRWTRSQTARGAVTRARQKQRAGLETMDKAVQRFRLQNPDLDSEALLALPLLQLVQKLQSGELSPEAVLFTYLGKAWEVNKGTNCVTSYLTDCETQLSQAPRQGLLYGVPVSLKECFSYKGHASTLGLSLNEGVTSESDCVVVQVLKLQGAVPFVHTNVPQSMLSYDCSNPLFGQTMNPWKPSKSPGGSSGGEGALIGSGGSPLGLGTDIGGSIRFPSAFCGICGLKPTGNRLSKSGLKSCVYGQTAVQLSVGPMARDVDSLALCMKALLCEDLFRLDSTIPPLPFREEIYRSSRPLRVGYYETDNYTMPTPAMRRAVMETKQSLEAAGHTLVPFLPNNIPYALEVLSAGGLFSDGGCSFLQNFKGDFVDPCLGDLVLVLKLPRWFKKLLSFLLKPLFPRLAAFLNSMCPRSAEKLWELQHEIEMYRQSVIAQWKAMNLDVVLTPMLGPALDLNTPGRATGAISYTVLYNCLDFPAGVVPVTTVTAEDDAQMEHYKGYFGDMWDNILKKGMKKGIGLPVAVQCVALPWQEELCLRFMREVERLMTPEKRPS

O=C(OC(C(F)(F)F)C(F)(F)F)N1CCC2(CCCN2Cc2ccc(F)c(OCCF)c2)CC1 [Example 29, 1,1,1,3,3,3-Hexafluoropropan-2-yl 1-(4-fluoro-3-(2-fluoroethoxy)benzyl)-1,8-diazaspiro[4.5]decane-8-carboxylate]
inhibition at 1 µM [1]: < 25% | IC50 [1]: > 1000 nM | MAGL % Inh 5 mg/kg (mouse) [2]: ### (### is ≥75%) | inhibition at 1 µM [3]: ≥ 75% | IC50 [3]: > 1000 nM | inhibition at 1 µM [4]: > 75% | IC50 [4]: < 100 nM | FAAH % Inh 5 mg/kg (mouse) [5]: ## (## is equal to or greater than 25% but less than 75%) | ABHD6 % Inh 5 mg/kg (mouse) [6]: ### (### is ≥75%)

O=C(OC(C(F)(F)F)C(F)(F)F)N1CCC2(CCCN2Cc2ccc(Cl)cc2OCCF)CC1 [Example 30, 1,1,1,3,3,3-Hexafluoropropan-2-yl 1-(4-chloro-2-(2-fluoroethoxy)benzyl)-1,8-diazaspiro[4.5]decane-8-carboxylate]
inhibition at 1 µM [1]: < 25% | IC50 [1]: > 1000 nM | MAGL % Inh 5 mg/kg (mouse) [2]: ### (### is ≥75%) | inhibition at 1 µM [3]: < 25% | IC50 [3]: > 1000 nM | inhibition at 1 µM [4]: > 75% | IC50 [4]: < 100 nM | FAAH % Inh 5 mg/kg (mouse) [5]: # (# is <25%) | ABHD6 % Inh 5 mg/kg (mouse) [6]: # (# is <25%)

O=C(OC(C(F)(F)F)C(F)(F)F)N1CCC2(CCCN2Cc2ccc(OCCF)cc2)CC1 [Example 31, 1,1,1,3,3,3-Hexafluoropropan-2-yl 1-(4-(2-fluoroethoxy)benzyl)-1,8-diazaspiro[4.5]decane-8-carboxylate]
inhibition at 1 µM [1]: < 25% | IC50 [1]: > 1000 nM | MAGL % Inh 5 mg/kg (mouse) [2]: ### (### is ≥75%) | inhibition at 1 µM [3]: < 25% | IC50 [3]: > 1000 nM | inhibition at 1 µM [4]: > 75% | IC50 [4]: < 100 nM | FAAH % Inh 5 mg/kg (mouse) [5]: # (# is <25%) | ABHD6 % Inh 5 mg/kg (mouse) [6]: ## (## is equal to or greater than 25% but less than 75%)

CCOc1cc(CN2CCCC23CCN(C(=O)OC(C(F)(F)F)C(F)(F)F)CC3)ccc1Cl [Example 32, 1,1,1,3,3,3-Hexafluoropropan-2-yl 1-(4-chloro-3-ethoxybenzyl)-1,8-diazaspiro[4.5]decane-8-carboxylate]
inhibition at 1 µM [1]: < 25% | IC50 [1]: > 1000 nM | MAGL % Inh 5 mg/kg (mouse) [2]: ### (### is ≥75%) | inhibition at 1 µM [3]: < 25% | IC50 [3]: > 1000 nM | inhibition at 1 µM [4]: > 75% | IC50 [4]: < 100 nM | FAAH % Inh 5 mg/kg (mouse) [5]: # (# is <25%) | ABHD6 % Inh 5 mg/kg (mouse) [6]: # (# is <25%)

O=C(OC(C(F)(F)F)C(F)(F)F)N1CCC2(CCCN2Cc2cc(Cl)cc(N3CCOCC3)c2)CC1 [Example 33, 1,1,1,3,3,3-Hexafluoropropan-2-yl 1-(3-chloro-5-morpholinobenzyl)-1,8-diazaspiro[4.5]decane-8-carboxylate]
inhibition at 1 µM [1]: < 25% | IC50 [1]: > 1000 nM | MAGL % Inh 5 mg/kg (mouse) [2]: ### (### is ≥75%) | inhibition at 1 µM [3]: < 25% | IC50 [3]: > 1000 nM | inhibition at 1 µM [4]: > 75% | IC50 [4]: < 100 nM | FAAH % Inh 5 mg/kg (mouse) [5]: ## (## is equal to or greater than 25% but less than 75%) | ABHD6 % Inh 5 mg/kg (mouse) [6]: # (# is <25%)

O=C(OC(C(F)(F)F)C(F)(F)F)N1CCC2(CCCN2Cc2cc(Cl)cc(N3CCCC3)c2)CC1 [Example 34, 1,1,1,3,3,3-Hexafluoropropan-2-yl 1-(3-chloro-5-(pyrrolidin-1-yl)benzyl)-1,8-diazaspiro[4.5]decane-8-carboxylate]
inhibition at 1 µM [1]: < 25% | IC50 [1]: > 1000 nM | MAGL % Inh 5 mg/kg (mouse) [2]: ### (### is ≥75%) | inhibition at 1 µM [3]: < 25% | IC50 [3]: > 1000 nM | inhibition at 1 µM [4]: > 75% | IC50 [4]: < 100 nM | FAAH % Inh 5 mg/kg (mouse) [5]: # (# is <25%) | ABHD6 % Inh 5 mg/kg (mouse) [6]: # (# is <25%)

O=C(OC(C(F)(F)F)C(F)(F)F)N1CCC2(CCCN2Cc2cc(N3CCOCC3)cc(C(F)(F)F)c2)CC1 [Example 35, 1,1,1,3,3,3-Hexafluoropropan-2-yl 1-(3-morpholino-5-(trifluoromethyl)benzyl)-1,8-diazaspiro[4.5]decane-8-carboxylate]
inhibition at 1 µM [1]: < 25% | IC50 [1]: > 1000 nM | MAGL % Inh 5 mg/kg (mouse) [2]: ### (### is ≥75%) | inhibition at 1 µM [3]: < 25% | IC50 [3]: > 1000 nM | inhibition at 1 µM [4]: > 75% | IC50 [4]: < 100 nM | FAAH % Inh 5 mg/kg (mouse) [5]: # (# is <25%) | ABHD6 % Inh 5 mg/kg (mouse) [6]: # (# is <25%)

O=C(OC(C(F)(F)F)C(F)(F)F)N1CCC2(CCCN2Cc2cc(N3CCCC3)cc(C(F)(F)F)c2)CC1 [Example 36, 1,1,1,3,3,3-Hexafluoropropan-2-yl 1-(3-(pyrrolidin-1-yl)-5-(trifluoromethyl)benzyl)-1,8-diazaspiro[4.5]decane-8-carboxylate]
inhibition at 1 µM [1]: < 25% | IC50 [1]: > 1000 nM | MAGL % Inh 5 mg/kg (mouse) [2]: ### (### is ≥75%) | inhibition at 1 µM [3]: < 25% | IC50 [3]: > 1000 nM | inhibition at 1 µM [4]: > 75% | IC50 [4]: < 100 nM | FAAH % Inh 5 mg/kg (mouse) [5]: # (# is <25%) | ABHD6 % Inh 5 mg/kg (mouse) [6]: # (# is <25%)

O=C(OC(C(F)(F)F)C(F)(F)F)N1CCC2(CCCN2Cc2cc(OC(F)(F)F)cc(N3CCOCC3)c2)CC1 [Example 37, 1,1,1,3,3,3-Hexafluoropropan-2-yl 1-(3-morpholino-5-(trifluoromethoxy)benzyl)-1,8-diazaspiro[4.5]decane-8-carboxylate]
inhibition at 1 µM [1]: < 25% | IC50 [1]: > 1000 nM | MAGL % Inh 5 mg/kg (mouse) [2]: ### (### is ≥75%) | inhibition at 1 µM [3]: < 25% | IC50 [3]: > 1000 nM | inhibition at 1 µM [4]: > 75% | IC50 [4]: < 100 nM | FAAH % Inh 5 mg/kg (mouse) [5]: # (# is <25%) | ABHD6 % Inh 5 mg/kg (mouse) [6]: # (# is <25%)

O=C(OC(C(F)(F)F)C(F)(F)F)N1CCC2(CCCN2Cc2cc(N3CCS(=O)(=O)CC3)cc(C(F)(F)F)c2)CC1 [Example 42, 1,1,1,3,3,3-Hexafluoropropan-2-yl 1-(3-(1,1-dioxidothiomorpholino)-5-(trifluoromethyl)benzyl)-1,8-diazaspiro[4.5]decane-8-carboxylate]
inhibition at 1 µM [1]: < 25% | IC50 [1]: > 1000 nM | MAGL % Inh 5 mg/kg (mouse) [2]: ### (### is ≥75%) | inhibition at 1 µM [3]: < 25% | IC50 [3]: > 1000 nM | inhibition at 1 µM [4]: > 75% | IC50 [4]: < 100 nM | FAAH % Inh 5 mg/kg (mouse) [5]: # (# is <25%) | ABHD6 % Inh 5 mg/kg (mouse) [6]: # (# is <25%)

CS(=O)(=O)N1CCN(c2cc(CN3CCCC34CCN(C(=O)OC(C(F)(F)F)C(F)(F)F)CC4)cc(C(F)(F)F)c2)CC1 [Example 43, 1,1,1,3,3,3-Hexafluoropropan-2-yl 1-(3-(4-(methylsulfonyl)piperazin-1-yl)-5-(trifluoromethyl)benzyl)-1,8-diazaspiro[4.5]decane-8-carboxylate]
inhibition at 1 µM [1]: < 25% | IC50 [1]: > 1000 nM | MAGL % Inh 5 mg/kg (mouse) [2]: ## (## is equal to or greater than 25% but less than 75%) | inhibition at 1 µM [3]: < 25% | IC50 [3]: > 1000 nM | inhibition at 1 µM [4]: > 75% | IC50 [4]: < 100 nM | FAAH % Inh 5 mg/kg (mouse) [5]: # (# is <25%) | ABHD6 % Inh 5 mg/kg (mouse) [6]: # (# is <25%)

O=C(OC(C(F)(F)F)C(F)(F)F)N1CCC2(CCCN2Cc2cc(N3CCC(F)CC3)cc(C(F)(F)F)c2)CC1 [Example 45, 1,1,1,3,3,3-Hexafluoropropan-2-yl 1-(3-(4-fluoropiperidin-1-yl)-5-(trifluoromethyl)benzyl)-1,8-diazaspiro[4.5]decane-8-carboxylate]
IC50 [1]: > 1000 nM | MAGL % Inh 5 mg/kg (mouse) [2]: ## (## is equal to or greater than 25% but less than 75%) | IC50 [3]: > 1000 nM | IC50 [4]: < 100 nM | FAAH % Inh 5 mg/kg (mouse) [5]: # (# is <25%) | ABHD6 % Inh 5 mg/kg (mouse) [6]: # (# is <25%)

O=C(OC(C(F)(F)F)C(F)(F)F)N1CCC2(CCCN2Cc2cc(N3CC4COCC4C3)cc(C(F)(F)F)c2)CC1 (stereo not drawn) [Example 46, 1,1,1,3,3,3-Hexafluoropropan-2-yl 1-(3-(tetrahydro-1H-furo[3,4-c]pyrrol-5(3H)-yl)-5-(trifluoromethyl)benzyl)-1,8-diazaspiro[4.5]decane-8-carboxylate]
IC50 [1]: > 1000 nM | MAGL % Inh 5 mg/kg (mouse) [2]: ### (### is ≥75%) | IC50 [3]: > 1000 nM | IC50 [4]: < 100 nM | FAAH % Inh 5 mg/kg (mouse) [5]: # (# is <25%) | ABHD6 % Inh 5 mg/kg (mouse) [6]: # (# is <25%)

O=C(OC(C(F)(F)F)C(F)(F)F)N1CCC2(CCCN2Cc2cc(N3CCC3)cc(C(F)(F)F)c2)CC1 [Example 47, 1,1,1,3,3,3-Hexafluoropropan-2-yl 1-(3-(azetidin-1-yl)-5-(trifluoromethyl)benzyl)-1,8-diazaspiro[4.5]decane-8-carboxylate]
inhibition at 1 µM [1]: < 25% | IC50 [1]: > 1000 nM | MAGL % Inh 5 mg/kg (mouse) [2]: ### (### is ≥75%) | inhibition at 1 µM [3]: < 25% | IC50 [3]: > 1000 nM | inhibition at 1 µM [4]: > 75% | IC50 [4]: < 100 nM | FAAH % Inh 5 mg/kg (mouse) [5]: # (# is <25%) | ABHD6 % Inh 5 mg/kg (mouse) [6]: # (# is <25%)
